Measured values published in US8952024B2, “Herbicidal pyrimidone derivatives” (E I du Pont de Nemours and Company, priority 2009, dated 2015).

Assays:
Format in all cases: in vivo
[1] = system: windgrass (Apera spica-venti); assay: Test B postemergence plant response; conditions: Postemergence; for Windgrass plant response rating: 250 g ai/ha, scale 0 to 100
Outline: (§1)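 Plants grown in peat/vermiculite medium were sprayed postemergence at 2–18 cm height (1- to 4-leaf stage). After 13–15 days in the greenhouse, response was rated visually against untreated controls on a 0–100 scale (0 no effect, 100 complete control).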

[2] = system: chickweed (Stellaria media); assay: Test B postemergence plant response; conditions: Postemergence; for Chickweed plant response rating: 250 g ai/ha, scale 0 to 100
Outline: as §1

[3] = system: winter barley (Hordeum vulgare); assay: Test B postemergence plant response; conditions: Postemergence; for Barley plant response rating: 250 g ai/ha, scale 0 to 100
Outline: as §1

[4] = system: canarygrass (Phalaris minor); assay: Test B postemergence plant response; conditions: Postemergence; for Canarygrass plant response rating: 250 g ai/ha, scale 0 to 100
Outline: as §1

[5] = system: giant foxtail (Setaria faberii); assay: Test A pre-/postemergence plant response
Outline: (§2)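 Visual injury rating on a 0–100 scale (0 = no effect, 100 = complete control) was made versus untreated controls after about ten days in the greenhouse. Compounds, formulated in a non-phytotoxic solvent mix containing surfactant, were sprayed preemergence onto loam/sand soil and postemergence onto one- to two-leaf plants.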

[6] = system: velvetleaf (Abutilon theophrasti); assay: Test A pre-/postemergence plant response
Outline: as §2

[7] = system: morningglory (Ipomoea spp.); assay: Test A pre-/postemergence plant response
Outline: as §2

[8] = system: barnyardgrass (Echinochloa crus-galli); assay: Test A pre-/postemergence plant response
Outline: as §2

[9] = system: pigweed (Amaranthus retroflexus); assay: Test A pre-/postemergence plant response
Outline: as §2

[10] = system: wheat (Triticum aestivum); assay: Test A pre-/postemergence plant response
Outline: as §2

[11] = system: large crabgrass (Digitaria sanguinalis); assay: Test A pre-/postemergence plant response
Outline: as §2

corn (Zea mays) = assay: Test A pre-/postemergence plant response
Outline: as §2

[12] = 31 g ai/ha, scale 0 to 100 (0 no effect, 100 complete control)
[13] = 62 g ai/ha, scale 0 (no effect) to 100 (complete control), 13 to 15 days
[14] = 125 g ai/ha, visual rating after 13 to 15 days, scale 0 (no effect) to 100 (complete control)
[15] = 125 g ai/ha, scale 0 to 100 (0 no effect, 100 complete control), 13 to 15 days
[16] = Postemergence, 125 g ai/ha, visual injury, 0 to 100 scale (0 no effect, 100 complete control), approx. ten days
[17] = Postemergence, 500 g ai/ha, 0 to 100 scale, 0 = no effect, 100 = complete control, approx. ten days
[18] = Preemergence, 125 g ai/ha, 0 to 100 scale, 0 = no effect, 100 = complete control
[19] = Preemergence, 500 g ai/ha, visual injury, 0 to 100 scale (0 no effect, 100 complete control), approx. ten days

Cc1ccc(-n2c(-c3ccccc3)ncc(C(=O)C3=C(O)CCCC3=O)c2=O)cc1 [Compound 8]
Plant response rating, Windgrass [1, 12]: 5 | Plant response rating, Windgrass [1, 13]: 20 | Plant response rating, Windgrass [1, 14]: 30 | Windgrass plant response rating [1]: 40 | Plant response rating, Chickweed [2, 12]: 98 | Plant response rating, Chickweed [2, 13]: 100 | Plant response rating, Chickweed [2, 14]: 100 | Chickweed plant response rating [2]: 100 | Plant response rating, Barley [3, 12]: 0 | Plant response rating, Barley [3, 13]: 0 | Plant response rating, Barley [3, 15]: 5 | Barley plant response rating [3]: 20 | Plant response rating, Canarygrass [4, 12]: 20 | Plant response rating, Canarygrass [4, 13]: 50 | Plant response rating, Canarygrass [4, 14]: 70 | Canarygrass plant response rating [4]: 85 | Foxtail, Giant plant response rating [5, 16]: 90 | Plant response rating, Foxtail, Giant [5, 17]: 100 | Plant response rating, Foxtail, Giant [5, 18]: 40 | Plant response rating, Foxtail, Giant [5, 19]: 90 | Velvetleaf plant response rating [6, 16]: 100 | Plant response rating, Velvetleaf [6, 17]: 100 | Plant response rating, Velvetleaf [6, 18]: 50 | Plant response rating, Velvetleaf [6, 19]: 90 | Morningglory plant response rating [7, 16]: 90 | Plant response rating, Morningglory [7, 17]: 100 | Plant response rating, Morningglory [7, 18]: 0 | Plant response rating, Morningglory [7, 19]: 70 | Barnyardgrass plant response rating [8, 16]: 90 | Plant response rating, Barnyardgrass [8, 17]: 100 | Plant response rating, Barnyardgrass [8, 18]: 10 | Plant response rating, Barnyardgrass [8, 19]: 80 | Pigweed plant response rating [9, 16]: 100 | Plant response rating, Pigweed [9, 17]: 100 | Plant response rating, Pigweed [9, 18]: 90 | Plant response rating, Pigweed [9, 19]: 90 | Wheat plant response rating [10, 16]: 10 | Plant response rating, Wheat [10, 17]: 50 | Plant response rating, Wheat [10, 18]: 0 | Plant response rating, Wheat [10, 19]: 20 | Crabgrass, Large plant response rating [11, 16]: 80 | Plant response rating, Crabgrass, Large [11, 17]: 90 | Plant response rating, Crabgrass, Large [11, 18]: 40 | Plant response rating, Crabgrass, Large [11, 19]: 100 | Corn plant response rating (corn (Zea mays); [16]): 10 | Plant response rating, Corn (corn (Zea mays); [17]): 50 | Plant response rating, Corn (corn (Zea mays); [18]): 0 | Plant response rating, Corn (corn (Zea mays); [19]): 20

Cc1ccccc1-n1c(-c2ccccc2)ncc(C(=O)C2=C(O)CCCC2=O)c1=O [Compound 12]
Plant response rating, Windgrass [1, 12]: 10 | Plant response rating, Windgrass [1, 13]: 40 | Plant response rating, Windgrass [1, 14]: 45 | Windgrass plant response rating [1]: 50 | Plant response rating, Chickweed [2, 12]: 100 | Plant response rating, Chickweed [2, 13]: 100 | Plant response rating, Chickweed [2, 14]: 100 | Chickweed plant response rating [2]: 100 | Plant response rating, Barley [3, 12]: 0 | Plant response rating, Barley [3, 13]: 0 | Plant response rating, Barley [3, 15]: 0 | Barley plant response rating [3]: 0 | Plant response rating, Canarygrass [4, 12]: 0 | Plant response rating, Canarygrass [4, 13]: 5 | Plant response rating, Canarygrass [4, 14]: 5 | Canarygrass plant response rating [4]: 40 | Foxtail, Giant plant response rating [5, 16]: 90 | Plant response rating, Foxtail, Giant [5, 17]: 90 | Plant response rating, Foxtail, Giant [5, 18]: 20 | Plant response rating, Foxtail, Giant [5, 19]: 90 | Velvetleaf plant response rating [6, 16]: 100 | Plant response rating, Velvetleaf [6, 17]: 100 | Plant response rating, Velvetleaf [6, 18]: 70 | Plant response rating, Velvetleaf [6, 19]: 90 | Morningglory plant response rating [7, 16]: 100 | Plant response rating, Morningglory [7, 17]: 100 | Plant response rating, Morningglory [7, 18]: 30 | Plant response rating, Morningglory [7, 19]: 90 | Barnyardgrass plant response rating [8, 16]: 90 | Plant response rating, Barnyardgrass [8, 17]: 90 | Plant response rating, Barnyardgrass [8, 18]: 10 | Plant response rating, Barnyardgrass [8, 19]: 70 | Pigweed plant response rating [9, 16]: 100 | Plant response rating, Pigweed [9, 17]: 100 | Plant response rating, Pigweed [9, 18]: 80 | Plant response rating, Pigweed [9, 19]: 100 | Wheat plant response rating [10, 16]: 0 | Plant response rating, Wheat [10, 17]: 0 | Plant response rating, Wheat [10, 18]: 0 | Plant response rating, Wheat [10, 19]: 0 | Crabgrass, Large plant response rating [11, 16]: 90 | Plant response rating, Crabgrass, Large [11, 17]: 100 | Plant response rating, Crabgrass, Large [11, 18]: 50 | Plant response rating, Crabgrass, Large [11, 19]: 90 | Corn plant response rating (corn (Zea mays); [16]): 40 | Plant response rating, Corn (corn (Zea mays); [17]): 80 | Plant response rating, Corn (corn (Zea mays); [18]): 0 | Plant response rating, Corn (corn (Zea mays); [19]): 0

O=C1CCCC(O)=C1C(=O)c1cnc(-c2ccccc2)n(-c2ccccc2F)c1=O [Compound 26]
Plant response rating, Windgrass [1, 12]: 10 | Plant response rating, Windgrass [1, 13]: 30 | Plant response rating, Windgrass [1, 14]: 40 | Windgrass plant response rating [1]: 60 | Plant response rating, Chickweed [2, 12]: 40 | Plant response rating, Chickweed [2, 13]: 50 | Plant response rating, Chickweed [2, 14]: 85 | Chickweed plant response rating [2]: 85 | Plant response rating, Barley [3, 12]: 0 | Plant response rating, Barley [3, 13]: 0 | Plant response rating, Barley [3, 15]: 0 | Barley plant response rating [3]: 0 | Plant response rating, Canarygrass [4, 12]: 20 | Plant response rating, Canarygrass [4, 13]: 30 | Plant response rating, Canarygrass [4, 14]: 50 | Canarygrass plant response rating [4]: 60 | Foxtail, Giant plant response rating [5, 16]: 50 | Plant response rating, Foxtail, Giant [5, 17]: 90 | Plant response rating, Foxtail, Giant [5, 18]: 30 | Plant response rating, Foxtail, Giant [5, 19]: 70 | Velvetleaf plant response rating [6, 16]: 100 | Plant response rating, Velvetleaf [6, 17]: 100 | Plant response rating, Velvetleaf [6, 18]: 20 | Plant response rating, Velvetleaf [6, 19]: 100 | Morningglory plant response rating [7, 16]: 50 | Plant response rating, Morningglory [7, 17]: 80 | Plant response rating, Morningglory [7, 18]: 10 | Plant response rating, Morningglory [7, 19]: 70 | Barnyardgrass plant response rating [8, 16]: 30 | Plant response rating, Barnyardgrass [8, 17]: 80 | Plant response rating, Barnyardgrass [8, 18]: 0 | Plant response rating, Barnyardgrass [8, 19]: 60 | Pigweed plant response rating [9, 16]: 90 | Plant response rating, Pigweed [9, 17]: 100 | Plant response rating, Pigweed [9, 18]: 60 | Plant response rating, Pigweed [9, 19]: 100 | Wheat plant response rating [10, 16]: 0 | Plant response rating, Wheat [10, 17]: 0 | Plant response rating, Wheat [10, 18]: 0 | Plant response rating, Wheat [10, 19]: 0 | Crabgrass, Large plant response rating [11, 16]: 70 | Plant response rating, Crabgrass, Large [11, 17]: 90 | Plant response rating, Crabgrass, Large [11, 18]: 20 | Plant response rating, Crabgrass, Large [11, 19]: 90 | Corn plant response rating (corn (Zea mays); [16]): 0 | Plant response rating, Corn (corn (Zea mays); [17]): 20 | Plant response rating, Corn (corn (Zea mays); [18]): 0 | Plant response rating, Corn (corn (Zea mays); [19]): 0
